Data as given in ChEMBL document CHEMBL1201861, “Genomics of Drug Sensitity in Cancer screening data, Wellcome Trust Sanger Institute”.

Key:
NCI-H1882 = assay: cells; assay type: functional, cell-based; details: Homo sapiens;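 note: growth inhibition of the cell line, determined with a viability assay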
Description: SANGER: Inhibition of human NCI-H1882 cell growth in a cell viability assay.

IST-SL2 = assay: cells; assay type: functional, cell-based; details: Homo sapiens;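 note: growth inhibition of human IST-SL2 cells, read out by a cell viability assay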
Description: SANGER: Inhibition of human IST-SL2 cell growth in a cell viability assay.

BC-3 = assay: cells; assay type: functional, cell-based; details: Homo sapiens;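 note: cell viability assay measuring growth inhibition of human BC-3 cells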
Description: SANGER: Inhibition of human BC-3 cell growth in a cell viability assay.

K052 = assay: cells; assay type: functional, cell-based; details: Homo sapiens;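 note: Read-out from a cell viability assay, IC50 reflecting suppression of K052 cell growth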
Description: SANGER: Inhibition of human K052 cell growth in a cell viability assay.

D-247MG = assay: cells; assay type: functional, cell-based; details: Homo sapiens
Description: SANGER: Inhibition of human D-247MG cell growth in a cell viability assay.

LC4-1 = assay: cells; assay type: functional, cell-based; details: Homo sapiens;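 note: growth inhibition of LC4-1 cells, read out with a cell viability assay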
Description: SANGER: Inhibition of human LC4-1 cell growth in a cell viability assay.

NCI-H748 = assay: cells; assay type: functional, cell-based; details: Homo sapiens;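 note: growth inhibition of NCI-H748 cells, measured by a cell viability assay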
Description: SANGER: Inhibition of human NCI-H748 cell growth in a cell viability assay.

EB-3 = assay: cells; assay type: functional, cell-based; details: Homo sapiens;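 note: human EB-3 cells, growth inhibition read out via a cell viability assay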
Description: SANGER: Inhibition of human EB-3 cell growth in a cell viability assay.

EB2 = assay: cells; assay type: functional, cell-based; details: Homo sapiens;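 note: growth inhibition of EB2 cells, read out with a cell viability assay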
Description: SANGER: Inhibition of human EB2 cell growth in a cell viability assay.

THP-1 = assay: cells; assay type: functional, cell-based; details: Homo sapiens;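 note: growth inhibition of THP-1 cells, read out via a cell viability assay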
Description: SANGER: Inhibition of human THP-1 cell growth in a cell viability assay.

TGW = assay: cells; assay type: functional, cell-based; details: Homo sapiens;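 note: growth inhibition of human TGW cells, read out with a cell viability assay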
Description: SANGER: Inhibition of human TGW cell growth in a cell viability assay.

CMK = assay: cells; assay type: functional, cell-based; details: Homo sapiens;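 note: growth inhibition of CMK cells, read out as cell viability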
Description: SANGER: Inhibition of human CMK cell growth in a cell viability assay.

ST486 = assay: SANGER: Inhibition of human ST486 cell growth in a cell viability assay.; assay type: functional, cell-based
TALL-1 = assay: cells; assay type: functional, cell-based; details: Homo sapiens;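 note: growth inhibition of cultured human TALL-1 cells, read out by a cell viability assay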
Description: SANGER: Inhibition of human TALL-1 cell growth in a cell viability assay.

RPMI-6666 = assay: cells; assay type: functional, cell-based; details: Homo sapiens
Description: SANGER: Inhibition of human RPMI-6666 cell growth in a cell viability assay.

Kasumi 1 = assay: cells; assay type: functional, cell-based; details: Homo sapiens;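 note: growth inhibition of human Kasumi-1 cells, read out by a cell viability assay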
Description: SANGER: Inhibition of human KASUMI-1 cell growth in a cell viability assay.

SW1710 = assay: cells; assay type: functional, cell-based; details: Homo sapiens;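 note: growth inhibition of SW1710 cells, determined with a cell viability assay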
Description: SANGER: Inhibition of human SW1710 cell growth in a cell viability assay.

MDA-MB-175-VII = assay: cells; assay type: functional, cell-based; details: Homo sapiens
8305C = assay: cells; assay type: functional, cell-based; details: Homo sapiens
Description: SANGER: Inhibition of human 8305C cell growth in a cell viability assay.

SW626 = assay: cells; assay type: functional, cell-based; details: Homo sapiens;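 note: growth inhibition of SW626 cells, measured with a cell viability assay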
Description: SANGER: Inhibition of human SW626 cell growth in a cell viability assay.

MDA-MB-157 = assay: cells; assay type: functional, cell-based; details: Homo sapiens
Description: SANGER: Inhibition of human MDA-MB-157 cell growth in a cell viability assay.

5637 = assay: cells; assay type: functional, cell-based; details: Homo sapiens
Description: SANGER: Inhibition of human 5637 cell growth in a cell viability assay.

CP50-MEL-B = assay: cells; assay type: functional, cell-based; details: Homo sapiens;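 note: growth inhibition of the human cell line, measured with a cell viability read-out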
Description: SANGER: Inhibition of human CP50-MEL-B cell growth in a cell viability assay.

NCI-H2052 = assay: cells; assay type: functional, cell-based; details: Homo sapiens;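 note: growth inhibition of NCI-H2052 cells, read out with a cell viability assay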
Description: SANGER: Inhibition of human NCI-H2052 cell growth in a cell viability assay.

COR-L23 = assay: cells; assay type: functional, cell-based; details: Homo sapiens;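 note: cell viability assay measuring how strongly compounds suppress growth of COR-L23 cells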
Description: SANGER: Inhibition of human COR-L23 cell growth in a cell viability assay.

8505C = assay: cells; assay type: functional, cell-based; details: Homo sapiens
Description: SANGER: Inhibition of human 8505C cell growth in a cell viability assay.

KYSE-70 cell line = assay: cells; assay type: functional, cell-based; details: Homo sapiens;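 note: cell viability assay read-out, with IC50 expressing suppression of KYSE-70 cell growth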
Description: SANGER: Inhibition of human KYSE-70 cell growth in a cell viability assay.

GCT = assay: cells; assay type: functional, cell-based; details: Homo sapiens;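 note: GCT cell line proliferation inhibition, read out with a cell viability assay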
Description: SANGER: Inhibition of human GCT cell growth in a cell viability assay.

MIA PaCa-2 = assay: cells; assay type: functional, cell-based; details: Homo sapiens;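 note: growth inhibition of MIA PaCa-2 cells, read out with a cell viability assay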
Description: SANGER: Inhibition of human MIA-PaCa-2 cell growth in a cell viability assay.

NCI-H1793 = assay: cells; assay type: functional, cell-based; details: Homo sapiens;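 note: cell growth inhibition, read out by a cell viability assay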
Description: SANGER: Inhibition of human NCI-H1793 cell growth in a cell viability assay.

MDA-MB-361 = assay: cells; assay type: functional, cell-based; details: Homo sapiens
KYSE-520 cell line = assay: cells; assay type: functional, cell-based; details: Homo sapiens;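 note: growth inhibition of human KYSE-520 cells, read out with a viability assay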
Description: SANGER: Inhibition of human KYSE-520 cell growth in a cell viability assay.

NCI-N87 = assay: cells; assay type: functional, cell-based; details: Homo sapiens;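 note: growth inhibition of human NCI-N87 cells, read out with a cell viability assay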
Description: SANGER: Inhibition of human NCI-N87 cell growth in a cell viability assay.

769-P = assay: cells; assay type: functional, cell-based; details: Homo sapiens
Description: SANGER: Inhibition of human 769-P cell growth in a cell viability assay.

T84 = assay: cells; assay type: functional, cell-based; details: Homo sapiens;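 note: growth inhibition measured with a cell viability readout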
Description: SANGER: Inhibition of human T84 cell growth in a cell viability assay.

MEL-JUSO = assay: cells; assay type: functional, cell-based; details: Homo sapiens;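 note: growth inhibition of human MEL-JUSO cells, read out with a cell viability assay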
Description: SANGER: Inhibition of human MEL-JUSO cell growth in a cell viability assay.

NCI-H2030 = assay: cells; assay type: functional, cell-based; details: Homo sapiens;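 note: growth inhibition of human NCI-H2030 cells, read out by a cell viability assay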
Description: SANGER: Inhibition of human NCI-H2030 cell growth in a cell viability assay.

SKG-IIIa = assay: cells; assay type: functional, cell-based; details: Homo sapiens;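 note: cell growth inhibition, read out with a cell viability assay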
Description: SANGER: Inhibition of human SKG-IIIa cell growth in a cell viability assay.

DOK = assay: cells; assay type: functional, cell-based; details: Homo sapiens;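 note: cell viability assay read-out, values reflect inhibition of cell growth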
Description: SANGER: Inhibition of human DOK cell growth in a cell viability assay.

BXPC-3 = assay: cells; assay type: functional, cell-based; details: Homo sapiens;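 note: growth inhibition of human BxPC-3 cells, read out by a cell viability assay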
Description: SANGER: Inhibition of human BxPC-3 cell growth in a cell viability assay.

SK-MEL-24 = assay: cells; assay type: functional, cell-based; details: Homo sapiens;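 note: growth inhibition read out by a cell viability assay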
Description: SANGER: Inhibition of human SK-MEL-24 cell growth in a cell viability assay.

RD = assay: cells; assay type: functional, cell-based; details: Homo sapiens
Description: SANGER: Inhibition of human RD cell growth in a cell viability assay.

C32 = assay: cells; assay type: functional, cell-based; details: Homo sapiens;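 note: cell viability assay, with IC50 reflecting inhibition of C32 cell growth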
Description: SANGER: Inhibition of human C32 cell growth in a cell viability assay.

BPH-1 = assay: cells; assay type: functional, cell-based; details: Homo sapiens;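 note: cell viability assay measuring growth inhibition of human BPH-1 cells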
Description: SANGER: Inhibition of human BPH-1 cell growth in a cell viability assay.

FaDu = assay: cells; assay type: functional, cell-based; details: Homo sapiens;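 note: cell viability readout of growth inhibition in FaDu cells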
Description: SANGER: Inhibition of human FADU cell growth in a cell viability assay.

CaR-1 = assay: cells; assay type: functional, cell-based; details: Homo sapiens;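 note: growth inhibition of human CaR-1 cancer cells, read out with a cell viability assay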
Description: SANGER: Inhibition of human CaR-1 cell growth in a cell viability assay.

CWR22R = assay: cells; assay type: functional, cell-based; details: Homo sapiens, 22Rv1;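 note: growth inhibition of 22Rv1 cells, read out with a cell viability assay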
Description: SANGER: Inhibition of human 22RV1 cell growth in a cell viability assay.

PA-1 = assay: cells; assay type: functional, cell-based; details: Homo sapiens;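 note: IC50 for suppression of PA-1 cell proliferation, determined with a cell viability read-out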
Description: SANGER: Inhibition of human PA-1 cell growth in a cell viability assay.

OVCAR-5 = assay: cells; assay type: functional, cell-based; details: Homo sapiens;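 note: growth inhibition of human OVCAR-5 cells, read out with a cell viability assay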
Description: SANGER: Inhibition of human OVCAR-5 cell growth in a cell viability assay.

RPMI-2650 = assay: cells; assay type: functional, cell-based; details: Homo sapiens
Description: SANGER: Inhibition of human RPMI-2650 cell growth in a cell viability assay.

CAKI-1 = assay: cells; assay type: functional, cell-based; details: Homo sapiens;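 note: growth inhibition of CAKI-1 cells, measured by a cell viability assay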
Description: SANGER: Inhibition of human CAKI-1 cell growth in a cell viability assay.

NUGC-3 = assay: cells; assay type: functional, cell-based; details: Homo sapiens;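 note: growth inhibition of human NUGC-3 cells, read out with a cell viability assay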
Description: SANGER: Inhibition of human NUGC-3 cell growth in a cell viability assay.

LK-2 = assay: cells; assay type: functional, cell-based; details: Homo sapiens;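 note: growth inhibition of LK-2 cells, read out with a viability assay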
Description: SANGER: Inhibition of human LK-2 cell growth in a cell viability assay.

SK-MEL-28 = assay: cells; assay type: functional, cell-based; details: Homo sapiens;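 note: growth inhibition of human SK-MEL-28 cells, read out with a cell viability assay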
Description: SANGER: Inhibition of human SK-MEL-28 cell growth in a cell viability assay.

SW-620 = assay: cells; assay type: functional, cell-based; details: Homo sapiens;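 note: growth inhibition of human SW-620 cells, measured by a cell viability assay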
Description: SANGER: Inhibition of human SW620 cell growth in a cell viability assay.

A-375 = assay: cells; assay type: functional, cell-based; details: Homo sapiens;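 note: growth inhibition of A375 cells, read out with a cell viability assay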
Description: SANGER: Inhibition of human A375 cell growth in a cell viability assay.

Ca-Ski = assay: cells; assay type: functional, cell-based; details: Homo sapiens;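 note: cell viability assay measuring inhibition of Ca-Ski cell growth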
Description: SANGER: Inhibition of human Ca-Ski cell growth in a cell viability assay.

PANC-03-27 = assay: cells; assay type: functional, cell-based; details: Homo sapiens
Description: SANGER: Inhibition of human PANC-03-27 cell growth in a cell viability assay.

CAL-12T = assay: cells; assay type: functional, cell-based, Homo sapiens; details: Homo sapiens, CAL-12T;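 note: growth inhibition of human CAL-12T cells, read out with a cell viability assay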
Description: SANGER: Inhibition of human CAL-12T cell growth in a cell viability assay.

OAW-42 = assay: cells; assay type: functional, cell-based; details: Homo sapiens;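 note: growth inhibition of OAW-42 cells, read out with a cell viability assay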
Description: SANGER: Inhibition of human OAW-42 cell growth in a cell viability assay.

NCI-H2122 = assay: cells; assay type: functional, cell-based; details: Homo sapiens;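 note: growth inhibition of the cells, read out with a cell viability assay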
Description: SANGER: Inhibition of human NCI-H2122 cell growth in a cell viability assay.

MCF7 = assay: cells; assay type: functional, cell-based; details: Homo sapiens;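 note: growth inhibition of human MCF7 cells, read out with a cell viability assay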
Description: SANGER: Inhibition of human MCF7 cell growth in a cell viability assay.

SF-295 = assay: cells; assay type: functional, cell-based; details: Homo sapiens;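 note: growth inhibition of SF-295 cells, read out with a cell viability assay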
Description: SANGER: Inhibition of human SF295 cell growth in a cell viability assay.

RERF-LC-MS = assay: cells; assay type: functional, cell-based; details: Homo sapiens
Description: SANGER: Inhibition of human RERF-LC-MS cell growth in a cell viability assay.

UMC-11 = assay: cells; assay type: functional, cell-based; details: Homo sapiens
Description: SANGER: Inhibition of human UMC-11 cell growth in a cell viability assay.

COc1cc(C)c(Sc2cnc(NC(=O)c3ccc(CNC(C)C(C)(C)C)cc3)s2)cc1C(=O)N1CCN(C(C)=O)CC1 (centres undefined)
IC50 (NCI-H1882): > 10200 nM | IC50 (IST-SL2): > 10200 nM | IC50 (BC-3): > 10200 nM | IC50 (K052): > 10200 nM | IC50 (D-247MG): > 10200 nM | IC50 (LC4-1): > 10200 nM | IC50 (NCI-H748): > 10200 nM | IC50 (EB-3): > 10200 nM | IC50 (EB2): > 10200 nM | IC50 (THP-1): > 10200 nM | IC50 (TGW): > 10200 nM | IC50 (CMK): > 10200 nM | IC50 (ST486): > 10200 nM | IC50 (TALL-1): > 10200 nM | IC50 (RPMI-6666): > 10200 nM | IC50 (Kasumi 1): > 10200 nM

CCNC(=O)c1noc(-c2cc(C(C)C)c(O)cc2O)c1-c1ccc(CN2CCOCC2)cc1 [LUMINESPIB]
IC50 (NCI-H1882): > 256 nM | IC50 (SW1710): 1.86 nM | IC50 (MDA-MB-175-VII): > 256 nM | IC50 (8305C): 30.7 nM | IC50 (IST-SL2): 57.4 nM | IC50 (SW626): 21.2 nM | IC50 (BC-3): 30.2 nM | IC50 (K052): 171 nM | IC50 (MDA-MB-157): > 256 nM | IC50 5637: 28.2 nM | IC50 (CP50-MEL-B): 83.7 nM | IC50 (NCI-H2052): 104 nM | IC50 (LC4-1): 115 nM | IC50 (COR-L23): 27.1 nM | IC50 (8505C): 8.21 nM | IC50 (KYSE-70 cell line): 38.1 nM | IC50 (NCI-H748): > 256 nM | IC50 (EB-3): 224 nM | IC50 (GCT): 41.6 nM | IC50 (MIA PaCa-2): 15.1 nM | IC50 (NCI-H1793): > 256 nM | IC50 (MDA-MB-361): 58.7 nM | IC50 (KYSE-520 cell line): 26.1 nM | IC50 (NCI-N87): 78 nM | IC50 (769-P): 10.7 nM | IC50 (T84): 13.3 nM | IC50 (MEL-JUSO): 16.8 nM | IC50 (EB2): 72.9 nM | IC50 (THP-1): 153 nM | IC50 (NCI-H2030): 17 nM | IC50 (SKG-IIIa): 178 nM | IC50 (DOK): > 256 nM | IC50 (BXPC-3): 43.4 nM | IC50 (SK-MEL-24): 42.8 nM | IC50 (RD): 26.6 nM | IC50 (C32): > 256 nM | IC50 (TGW): 165 nM | IC50 (BPH-1): 10.3 nM | IC50 (FaDu): 67.4 nM | IC50 (CaR-1): > 256 nM | IC50 (CMK): < 1 nM | IC50 (CWR22R): 35.1 nM | IC50 (PA-1): 27.6 nM | IC50 (OVCAR-5): 18.1 nM | IC50 (RPMI-2650): 14.3 nM | IC50 (CAKI-1): 251 nM | IC50 (NUGC-3): 48.3 nM | IC50 (LK-2): 102 nM | IC50 (SK-MEL-28): > 256 nM | IC50 (SW-620): 19.2 nM | IC50 (A-375): 21.7 nM | IC50 (ST486): 55.3 nM | IC50 (Ca-Ski): 37.8 nM | IC50 (PANC-03-27): 11.6 nM | IC50 (CAL-12T): 9.22 nM | IC50 (OAW-42): 37.5 nM | IC50 (NCI-H2122): 13.8 nM | IC50 (MCF7): 3.35 nM | IC50 (TALL-1): > 256 nM | IC50 (SF-295): 17.2 nM | IC50 (RERF-LC-MS): 134 nM | IC50 (UMC-11): > 256 nM | IC50 (RPMI-6666): 8.52 nM
